Test results reported in patent US20240417412A1, “HETEROCYCLIC COMPOUNDS AND METHODS OF USE” (AMGEN INC., priority 2022, published 2024).

What was measured:
[1] = biological target: KRAS G12D (Homo sapiens, UniProt P01116, C118A/G12D); experiment: KRAS G12D Coupled Nucleotide Exchange Assay; type: biochemical; settings: GDP-bound KRAS G12D/C118A, 2 hours pre-incubation, SOS-mediated nucleotide exchange, AlphaScreen
Experimental: The assay plates were then read on a PerkinElmer EnVision Multilabel Reader, using AlphaScreen® technology, and data were analyzed using a 4-parameter logistic model to calculate IC50 values.

[2] = biological target: KRAS G12D (Homo sapiens, UniProt P01116, G12D); experiment: KRAS G12D TR-FRET Assay; settings: His-tagged KRAS G12D, biotinylated KRPep-2d, read-out: KRAS G12D Binding IC50
Experimental: The plate was incubated for 30 minutes at room temperature. Biotinylated KRPep-2d substrate (Amgen) was diluted to 20 nM in Assay Buffer and 2 uL was added to all wells and incubated for 1 hour at room temperature. Detection Reagent (0.4 nM LANCE Eu-W1024 Anti-6×His (Perkin Elmer AD0401), 5 nM streptavidin-d2 (Cisbio 610SADLA)) was prepared in Assay Buffer, then 4 μL was added to the plate and incubated for 1 hour at room temperature.

[3] = system: p-ERK (AsPC-1 cells); experiment: Phospho-ERK1/2 MSD Assay; type: cell-based; settings: Homo sapiens, ASPC1, 2 h, read-out: 2 h p-ERK (AsPC-1 cells), IC50 (μM), AsPC-1 cells, 2 hours compound treatment
Experimental: Sixteen hours prior to compound treatment, AsPC-1 cells were seeded in 96-well cell culture plates at a density of 25,000 cells/well and incubated at 37° C., 5% CO2. A compound dose-response titration was diluted in growth media, added to appropriate wells of a cell culture plate, and then incubated at 37° C., 5% CO2 for 2 hours. […] Phosphorylation of ERK1/2 in compound-treated lysates was assayed using Phospho-ERK1/2 Whole Cell Lysate kits (Meso Scale Discovery K151DWD) according to the manufacturer's protocol. Assay plates were read on a Meso Scale Discovery Sector Imager 6000, and data were analyzed using a 4-parameter logistic model to calculate IC50 values.

Sequence of KRAS G12D (Homo sapiens, UniProt P01116, C118A/G12D) (P01116 1-169 isoform P01116-2 G12D/C118A): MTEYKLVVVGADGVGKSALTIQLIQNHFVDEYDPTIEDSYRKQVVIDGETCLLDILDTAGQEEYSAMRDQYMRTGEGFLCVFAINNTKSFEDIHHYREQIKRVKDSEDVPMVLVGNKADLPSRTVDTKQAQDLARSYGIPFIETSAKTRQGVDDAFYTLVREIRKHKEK
Sequence of KRAS G12D (Homo sapiens, UniProt P01116, G12D) (P01116 1-188 isoform P01116-2 G12D): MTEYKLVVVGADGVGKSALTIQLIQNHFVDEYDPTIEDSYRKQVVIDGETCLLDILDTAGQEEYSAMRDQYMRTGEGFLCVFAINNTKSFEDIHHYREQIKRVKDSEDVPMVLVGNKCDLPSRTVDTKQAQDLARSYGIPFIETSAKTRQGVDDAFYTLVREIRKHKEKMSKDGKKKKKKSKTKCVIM

Row | IC50 [1] [nM] | IC50 [2] [nM] | IC50 [3] [µM] | SMILES
1 | 5 | 7 | 3.18 | CCc1c(F)ccc2cc(O)cc(-c3ncc4c(N5CCC6(CC5)COC(=O)N6)nc(OC[C@@]56CCCN5C[C@H](F)C6)nc4c3F)c12 [Example 42, 8-(7-(8-Ethyl-7-fluoro-3-hydroxynaphthalen-1-yl)-8-fluoro-2-(((2R,7aS)-2-fluorotetrahydro-1H-pyrrolizin-7a(5H)-yl)methoxy)pyrido[4,3-d]pyrimidin-4-yl)-3-oxa-1,8-diazaspiro[4.5]decan-2-one]
2 | 3 | 3 | 0.252 | CCc1c(F)ccc2cc(O)cc(-c3ncc4c(N5CCCC6(C5)CC6(F)F)nc(OC[C@@]56CCCN5C[C@H](F)C6)nc4c3F)c12 (stereo partly drawn) [Example 44, 4-(4-(1,1-Difluoro-5-azaspiro[2.5]octan-5-yl)-8-fluoro-2-(((2R,7aS)-2-fluorotetrahydro-1H-pyrrolizin-7a(5H)-yl)methoxy)pyrido[4,3-d]pyrimidin-7-yl)-5-ethyl-6-fluoronaphthalen-2-ol]
3 | 2 | 2 | 0.182 | CCc1c(F)ccc2cc(O)cc(-c3ncc4c(N5CCOCC6(CC(=O)N6)C5)nc(OC[C@@]56CCCN5C[C@H](F)C6)nc4c3F)c12 (stereo partly drawn) [Example 53, 9-(7-(8-Ethyl-7-fluoro-3-hydroxynaphthalen-1-yl)-8-fluoro-2-(((2R,7aS)-2-fluorotetrahydro-1H-pyrrolizin-7a(5H)-yl)methoxy)pyrido[4,3-d]pyrimidin-4-yl)-6-oxa-1,9-diazaspiro[3.6]decan-2-one]
